The experiment deals with T1, Adenosine receptor A2b (Homo sapiens, UniProt P29275).
T1 sequence (P29275 whole entry): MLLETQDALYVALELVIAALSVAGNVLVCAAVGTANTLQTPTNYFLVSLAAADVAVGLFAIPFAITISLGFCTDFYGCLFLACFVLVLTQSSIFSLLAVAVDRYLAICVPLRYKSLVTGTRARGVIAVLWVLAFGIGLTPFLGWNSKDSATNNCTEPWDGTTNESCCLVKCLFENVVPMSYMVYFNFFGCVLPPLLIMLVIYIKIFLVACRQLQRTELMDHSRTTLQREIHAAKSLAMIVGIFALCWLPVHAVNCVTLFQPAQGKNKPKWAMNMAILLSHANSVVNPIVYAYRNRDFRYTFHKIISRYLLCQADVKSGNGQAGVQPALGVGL
Description: Percent displacement of [3H]DPCPX binding in human adenosine A2B receptor expressed in COS-7 cells.

Take `COc1ccccc1NC(=O)Nc1nc(-c2cccnc2)nc2ccccc12` [VUF-5574]: the Ki amounted to 10 µM.

As a reminder, the Ki is a measure of affinity in units of concentration, obtained from inhibition or displacement. Higher therefore signals lower affinity.
